Here are results for 15 compounds from US20090012061A1, “A Method of Treating Cancer” (priority 2004, published 2009).

In experiment [1] the target is T1, human KSP motor domain (KSP(367H)) (Homo sapiens, UniProt P52732).
T1 construct: were used to amplify the motor domain and the neck linker region; made in house; host or cells: E. coli BL21 (DE3), pRSETa
T1 sequence (P52732 18-359 limits assumed): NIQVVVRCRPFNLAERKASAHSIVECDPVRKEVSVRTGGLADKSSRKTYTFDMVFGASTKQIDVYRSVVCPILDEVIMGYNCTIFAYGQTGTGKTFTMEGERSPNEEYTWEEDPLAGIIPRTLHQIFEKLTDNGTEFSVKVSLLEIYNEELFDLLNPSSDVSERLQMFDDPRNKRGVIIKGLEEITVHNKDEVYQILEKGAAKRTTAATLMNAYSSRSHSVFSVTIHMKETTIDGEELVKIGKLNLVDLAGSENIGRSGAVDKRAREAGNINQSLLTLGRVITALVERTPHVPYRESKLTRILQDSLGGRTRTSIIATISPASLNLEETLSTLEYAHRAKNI
Description: Kinesin ATPase in vitro assay (KSP ATPase, quinaldine red/ammonium molybdate phosphate detection). It counts as biochemical. From the text:
Plasmids for the expression of the human KSP motor domain construct were cloned by PCR using a pBluescript full length human KSP construct (Blangy et al., Cell, vol. 83, pp 1159-1169, 1995) as a template. The N-terminal primer 5′-[…] (SEQ.ID.NO.: 1) and the C-terminal primer 5′-[…] […] (SEQ.ID.NO.: 2) were used to amplify the motor domain and the neck linker region. The PCR products were digested with AseI and XhoI, ligated into the NdeI/XhoI digestion product of pRSETa (Invitrogen) and transformed into E. coli BL21 (DE3).
Cells were grown at 37° C. to an OD600 of 0.5. After cooling the culture to room temperature expression of KSP was induced with 100 μM IPTG and incubation was continued overnight. Cells were pelleted by centrifugation and washed once with ice-cold PBS. Pellets were flash-frozen and stored −80° C.
Cell pellets were thawed on ice and resuspended in lysis buffer (50 mM K-HEPES, pH 8.0, 250 mM KCl, 0.1% Tween, 10 mM imidazole, 0.5 mM Mg-ATP, 1 mM PMSF, 2 mM benzimidine, 1× complete protease inhibitor cocktail (Roche)). Cell suspensions were incubated with 1 mg/ml lysozyme and 5 mM β-mercaptoethanol on ice for 10 minutes, followed by sonication (3×30 sec). All subsequent procedures were performed at 4° C. Lysates were centrifuged at 40,000×g for 40 minutes. Supernatants were diluted and loaded onto an SP Sepharose column (Phamacia, 5 ml cartridge) in buffer A (50 mM K-HEPES, pH 6.8, 1 mM MgCl2, 1 mM EGTA, 10 μM Mg-ATP, 1 mM DTT) and eluted with a 0 to 750 mM KCl gradient in buffer A. Fractions containing KSP were pooled and incubated with Ni-NTA resin (Qiagen) for one hour. The resin was washed three times with buffer B (Lysis buffer minus PMSF and protease inhibitor cocktail), followed by three 15-minute incubations and washes with buffer B. Finally, the resin was incubated and washed for 15 minutes three times with buffer C (same as buffer B except for pH 6.0) and poured into a column. KSP was eluted with elution buffer (identical to buffer B except for 150 mM KCl and 250 mM imidazole). KSP-containing fractions were pooled, made 10% in sucrose, and stored at −80° C.
Microtubules are prepared from tubulin isolated from bovine brain. Purified tubulin (>97% MAP-free) at 1 mg/ml is polymerized at 37° C. in the presence of 10 μM paclitaxel, 1 mM DTT, 1 mM GTP in BRB80 buffer (80 mM K-PIPES, 1 mM EGTA, 1 mM MgCl2 at pH 6.8). The resulting microtubules are separated from non-polymerized tubulin by ultracentrifugation and removal of the supernatant. The pellet, containing the microtubules, is gently resuspended in 10 μM paclitaxel, 1 mM DTT, 50 μg/ml ampicillin, and 5 μg/ml chloramphenicol in BRB80.
(§1) The kinesin motor domain (20 nM) is incubated with microtubules, ATP (1 mM 1:1 MgCl2: Na-ATP), and compound at 23° C. in buffer containing 80 mM K-HEPES (pH 7.0), 1 mM EGTA, 1 mM DTT, 1 mM MgCl2, and 50 mM KCl. The reaction is terminated by a 2-10 fold dilution with a final buffer composition of 80 mM HEPES and 50 mM EDTA (or, alternately, with a 1:1 addition of reaction volume to stop buffer(1.8M KCl and 50 mM EDTA)). Free phosphate from the ATP hydrolysis reaction is measured via a quinaldine red/ammonium molybdate assay by adding a 1.5 times volume of quench C (e.g., to a mixture of […] reaction volume+40 μl stop buffer is then added 120 μl quench C). Quench A contains 0.1 mg/ml quinaldine red and 0.14% polyvinyl alcohol; quench B contains 12.3 mM ammonium molybdate tetrahydrate in 1.15 M sulfuric acid. Quench C is a 2:1 ratio of quench A:quench B The reaction is incubated for 5-10 minutes at 23° C., and the absorbance of the phospho-molybdate complex is measured at 540 nm.
In order to identify compounds useful in the methods of the instant invention, the assay described above was then performed in the presence (0.5 μM) and absence of microtubules. Compounds that are commercially available are noted by the source and catalog number.

The target in experiment [2] is T1, human KSP motor domain (KSP(367H)). Description: Substrate competitive profile by Michaelis-Menton analysis with the KSP ATPase assay. It counts as biochemical. The following applies: for Competitive with ATP?: ATP varied between 4 μM and 500 μM, in the presence of 2 μM of microtubules; for Competitive with MT?: microtubules varied between 0.01 μM and 5 μM, in the presence of 1 mM of ATP. Here is the method: as §1
The in vitro substrate competitive profiles of the compounds described in Table 1 below were determined using a Michaelis-Menton analysis with the assay described above, but varying assay concentrations of one of the substrates (ATP or microtubule) in the presence of excess of the second substrate. Thus, the concentration of ATP was varied between 4 μM and 500 μM, in the presence of 2 μM of microtubules. And the concentration of microtubules was varied between 0.01 μM and 5 μM, in the presence of 1 mM of ATP.

Where [3] appears, read: Table 1, kinesin motor domain 20 nM, with microtubules, 1 mM ATP, 23° C., read-out: KSP ATPase IC50.
[4] abbreviates: Table 2, microtubules absent (basal), [MT] = 0 uM, standard KSP(ADP), read-out: KSP ATPase IC50 (nM) [MT] = 0 uM.
The mark [5] stands for this setting: Table 2, microtubules present, [MT] = 0.5 uM, standard KSP(ADP), read-out: KSP ATPase IC50 (nM) [MT] = 0.5 uM.

Values joined by “and” are separate entries in the source; they are usually repeats but may differ in a detail not shown here. Identical values can stand only once. Like-named read-outs stand apart in the source and are kept apart here.

Consider `Cc1nn(C(=S)NCc2ccccc2)c2c1[C@H]1[C@@H](C2)C1(C)C` [Compound 11], for which the IC50 in experiment [1] (setting [3]) is 1230 nM; in experiment [1] (setting [4]), above 50000 nM; in experiment [1] (setting [5]), 1820 nM and 1360 nM. The “Competitive with ATP?” value in experiment [2] is given as “no”. Moreover, in experiment [2], the “Competitive with MT?” value is listed as “no”.
Turning to `C=CCNC(=O)c1cc(-c2ccc(Cl)cc2)n(-c2cc(Cl)ccc2Cl)n1` [Compound 8], the IC50 in experiment [1] (setting [3]) is 5040 nM; in experiment [1] (setting [4]), above 50000 nM; in experiment [1] (setting [5]) it was 3100 nM and 5540 nM. The “Competitive with ATP?” value in experiment [2] is recorded as “no”. For the same compound, in experiment [2], the “Competitive with MT?” value was “no”.
Turning to `CCOC(=O)CSc1nc(C23CC4CC(CC(C4)C2)C3)ccc1C#N` [Compound 12], the IC50 is 556 nM in experiment [1] (setting [3]), above 50000 nM in experiment [1] (setting [4]) and 1150 nM in experiment [1] (setting [5]). Also, the “Competitive with ATP?” value in experiment [2] was “no”.
Take `O=C(Nc1ccc(Br)c(Cl)c1)C(c1ccccc1)c1ccccc1` [Compound 9]: the IC50 in experiment [1] (setting [3]) was 692 nM; in experiment [1] (setting [4]), above 50000 nM; in experiment [1] (setting [5]), 647 nM. In addition, the “Competitive with ATP?” value in experiment [2] is “no”. For the same compound, the “Competitive with MT?” value in experiment [2] is recorded as “no”.
With `CCCc1cc(N)c2cc(NC(=O)c3ccc(Oc4ccc(Cl)cc4)cc3)ccc2n1` [Compound 4], the IC50 was 3230 nM in experiment [1] (setting [3]); above 50000 nM in experiment [1] (setting [4]); 2550 nM and 3430 nM in experiment [1] (setting [5]). Moreover, in experiment [2], the “Competitive with ATP?” value is on record as “no”. In addition, in experiment [2], the “Competitive with MT?” value is reported as “no”.
Regarding `CC(C)(C)c1ccc2[nH]c3c(c2c1)CCCC3=O` [Compound 1], the IC50 is 597 nM in experiment [1] (setting [3]); above 50000 nM in experiment [1] (setting [4]); 619 nM and 685 nM in experiment [1] (setting [5]). Besides, the “Competitive with ATP?” value in experiment [2] is “no”. The “Competitive with MT?” value in experiment [2] was “no”.
With `CC(C)(C)c1cccc(NC(=O)Nc2ccc3ccc(O)cc3c2)c1` [Compound 6, N-(3-tert-butylphenyl)-N-(7-hydroxy-2-naphthyl)urea], the IC50 in experiment [1] (setting [3]) is 1900 nM; in experiment [1] (setting [4]), above 50000 nM; in experiment [1] (setting [5]) it was 2780 nM. Moreover, the “Competitive with ATP?” value in experiment [2] is “no”. Besides, the “Competitive with MT?” value in experiment [2] was “no”.
Turning to `Cc1cc2ncn(CC(O)COc3ccc(I)cc3)c2cc1C` (centres unmarked) [Compound 10], the IC50 in experiment [1] (setting [3]) was 4750 nM; in experiment [1] (setting [4]), above 50000 nM; in experiment [1] (setting [5]) it was 5040 nM. Moreover, the “Competitive with ATP?” value in experiment [2] is “no”. Besides, the “Competitive with MT?” value in experiment [2] was “no”.
As to `Oc1cccc(CC2(Cc3cccc(O)c3)Cc3ccccc3C2)c1` [Compound 5], the figures for the 50% inhibitory concentration (IC50) in experiment [1] (setting [3]), in experiment [1] (setting [4]) and in experiment [1] (setting [5]) were 5870 nM, above 50000 nM and 7740 nM, respectively. Besides, the “Competitive with ATP?” value in experiment [2] is “no”. Moreover, in experiment [2], the “Competitive with MT?” value is recorded as “no”.
As for `O=C(NC(C(=O)c1ccccc1)c1ccccc1)OCc1ccccc1` (centres unmarked) [Compound 3, N-(2-Oxo-1,2-diphenyl-ethyl)-carbamic acid benzyl ester], the IC50 is 2360 nM in experiment [1] (setting [3]); above 50000 nM in experiment [1] (setting [4]); 4050 nM and 2940 nM in experiment [1] (setting [5]). In addition, in experiment [2], the “Competitive with ATP?” value is “no”. Moreover, the “Competitive with MT?” value in experiment [2] is “no”.
Take `CCN1C(=O)C(O)(c2ccccc2)c2cc(Br)ccc21` (centres unmarked) [Compound 14]: the IC50 in experiment [1] (KSP ATPase IC50 (nM) [MT] = 0 uM, Table 2, microtubules absent (basal), [MT] = 0 uM, standard KSP(ADP)) is above 50000 nM; in experiment [1] (KSP ATPase IC50 (nM) [MT] = 0.5 uM, Table 2, microtubules present, [MT] = 0.5 uM, standard KSP(ADP)), 8920 nM and 4600 nM; in experiment [1] (KSP ATPase IC50 (nM), Table 1, kinesin motor domain 20 nM, with microtubules, 1 mM ATP, 23° C.), 3920 nM. The “Competitive with ATP?” value in experiment [2] was “no”. Further, the “Competitive with MT?” value in experiment [2] is given as “no”.
Regarding `CSc1ccc(C(=O)N2CCCN(CC(=O)Nc3ccc(F)cc3)CC2)s1` [Compound 15], the half-inhibitory concentration (IC50) in experiment [1] (setting [3]) is 7020 nM and 6750 nM; in experiment [1] (setting [4]), above 50000 nM; in experiment [1] (setting [5]), 8880 nM. Besides, in experiment [2], the “Competitive with ATP?” value is listed as “no”. The “Competitive with MT?” value in experiment [2] is reported as “no”.
Take `Cc1ccc(NC(=O)C(c2ccccc2)c2ccccc2)cc1[N+](=O)[O-]` [Compound 7]: the IC50 was 3850 nM in experiment [1] (setting [3]); above 50000 nM in experiment [1] (setting [4]); 3690 nM and 6290 nM in experiment [1] (setting [5]). Besides, the “Competitive with ATP?” value in experiment [2] is listed as “no”. The “Competitive with MT?” value in experiment [2] is given as “no”.
Take `O=C(c1cc([N+](=O)[O-])ccc1Cl)N1c2ccccc2Sc2ccccc21` [Compound 13]: the IC50 in experiment [1] (setting [3]) is 864 nM; in experiment [1] (setting [4]) it was above 50000 nM; in experiment [1] (setting [5]) it was 2530 nM and 4520 nM. Besides, in experiment [2], the “Competitive with ATP?” value is recorded as “no”. Moreover, the “Competitive with MT?” value in experiment [2] is “no”.
For `O=C(Nc1nc2ccccc2s1)C(c1ccccc1)c1ccccc1` [Compound 2], the IC50 in experiment [1] (setting [3]) was 1090 nM; in experiment [1] (setting [4]), above 50000 nM; in experiment [1] (setting [5]), 1400 nM and 2150 nM. Also, the “Competitive with ATP?” value in experiment [2] is listed as “no”. Moreover, the “Competitive with MT?” value in experiment [2] is reported as “no”.

A word on the IC50: it is the concentration at which inhibition is half-maximal.
